Measurements published in the supplement of paper PMC5579334.

Key:
HS-PSS [1] = assay: drug sensitivity score (DSS, CellTox-Green cytotoxicity, 72 h) (DSS (dimensionless)); higher = more cytotoxic; extreme values may be limits of the assay
Method in brief: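 MPNST cell lines and primary human Schwann cells were grown for 72 h at 37 °C in 384-well plates containing five 10-fold compound dilutions. CellTox-Green, added before seeding at a final 1:1000 dilution, gave fluorescence from DNA released by disrupted cells, and signals were scaled to vehicle and positive-control wells. Curves were fitted with a four-parameter logistic model. Drug sensitivity score and relative IC50 come from these fits, with IC50 censored at the top concentration.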

YST-1 [2] = assay: drug sensitivity score (DSS, CellTiter-Glo viability, 72 h) (DSS (dimensionless)); higher = more sensitive; extreme values may be limits of the assay
Method in brief: (§1)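 Viability of MPNST cell lines and primary human Schwann cells was read as CellTiter-Glo ATP luminescence after 72 h at 37 °C, 5% CO2, in 384-well plates seeded with 750–1000 cells per well. Each compound had been preprinted at five concentrations in 10-fold steps. Signals were scaled between vehicle and positive-control wells, duplicates averaged where present, and fitted with four-parameter logistic curves. Drug sensitivity score and relative IC50 (censored at the top concentration) come from those fits, and percent inhibition is taken at the top concentration.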

HS-PSS [3] = assay: as above
Method in brief: as §1

HS-Sch-2 [4] = assay: as above
Method in brief: as §1

YST-1 [5] = assay: % inhibition of CellTiter-Glo viability at highest tested concentration (72 h), relative to DMSO and benzethonium chloride controls; higher = more inhibition
Method in brief: as §1

HS-PSS [6] = assay: as above
Method in brief: as §1

HS-Sch-2 [7] = assay: as above
Method in brief: as §1

SMILES | drug sensitivity score (HS-PSS [1]) | drug sensitivity score (YST-1 [2]) | drug sensitivity score (HS-PSS [3]) | drug sensitivity score (HS-Sch-2 [4]) | % inhibition (YST-1 [5]) | % inhibition (HS-PSS [6]) | % inhibition (HS-Sch-2 [7])
C#Cc1cccc(Nc2ncnc3cc4c(cc23)OCCOCCOCCO4)c1 [Icotinib] (max concentration tested 10000 nM) | 0 | 1.96 | 0.72 | 1.37 | 23.8% | 16.4% | 19.6%
Cc1c(CN2CCN(C(=O)[C@H](C)O)CC2)sc2c(N3CCOCC3)nc(-c3cnc(N)nc3)nc12 [Apitolisib] (max concentration tested 10000 nM) | 0 | 18.3 | 8.39 | 9.07 | 86.9% | 64.5% | 71.5%
COc1ccc(CCc2nc3cc(-c4c(C)noc4C)ccc3n2C[C@H](C)N2CCOCC2)cc1Cl [SGC-CBP30] (max concentration tested 25000 nM) | 0 | 5.72 | 1.59 | 5.7 | 62% | 40.4% | 60.7%
COc1ncc(-c2ccc3nccc(-c4ccnnc4)c3c2)cc1NS(=O)(=O)c1ccc(F)cc1F [Omipalisib] (max concentration tested 1000 nM) | 0 | 23.6 | 10.6 | 9.45 | 94% | 64.3% | 83.8%
CNC(=O)c1c(F)cccc1Nc1nc(Nc2cc3c(cc2OC)CCN3C(=O)CN(C)C)nc2[nH]ccc12 (max concentration tested 2500 nM) | 1.53 | 11.8 | 13.9 | 0.22 | 66.3% | 59.1% | 11.8%
Cc1ccc2nc(CN(CCN(Cc3nc4ccc(C)cc4[nH]3)Cc3nc4ccc(C)cc4[nH]3)Cc3nc4ccc(C)cc4[nH]3)[nH]c2c1 (max concentration tested 50000 nM) | 0.03 | 6.33 | 7.02 | 7.29 | 67.5% | 74.3% | 80.3%
O=c1ncn2nc(Sc3ccc(F)cc3F)ccc2c1-c1c(Cl)cccc1Cl [VX 745] (max concentration tested 10000 nM) | 0 | 3.73 | 0.47 | 0.7 | 31.1% | 21.1% | 22.6%
N#Cc1c(Oc2ccc(F)c(NC(=O)Cc3cccc(C(F)(F)F)c3)c2)ccc2nc(NC(=O)C3CC3)sc12 [TAK-632] (max concentration tested 10000 nM) | 0 | 0 | 1.38 | 1.14 | 10.2% | 37.5% | 32.1%
Cc1nc(Nc2n[nH]c3c2CN(C(=O)N[C@H](CN(C)C)c2ccccc2)C3(C)C)c2sccc2n1 (max concentration tested 10000 nM) | 10.6 | 24.2 | 27.9 | 15.4 | 101% | 86.4% | 101%
CCCCCCCCCCCCCCCCCCOP(=O)([O-])OC1CC[N+](C)(C)CC1 [Perifosine] (max concentration tested 2500 nM) | 0 | 0 | 0 | 0 | -0.19% | 0.4% | 4.74%
O=C(/C=C\n1cnc(-c2cc(C(F)(F)F)cc(C(F)(F)F)c2)n1)NNc1ccccn1 [Verdinexor] (max concentration tested 1000 nM) | 0.01 | 8.71 | 5.78 | 9.76 | 88.9% | 60% | 97%
C[C@@H]1C[C@H]2O[C@@H]2/C=C\C=C\C(=O)Cc2c(Cl)c(O)cc(O)c2C(=O)O1 [Radicicol] (max concentration tested 10000 nM) | 4.33 | 12.1 | 12.9 | 16.3 | 94% | 86.2% | 99.8%
CC(C)c1cc(C(=O)N2Cc3ccc(CN4CCN(C)CC4)cc3C2)c(O)cc1O [Onalespib] (max concentration tested 2500 nM) | 6.31 | 12.6 | 13.2 | 21.4 | 75.8% | 81.9% | 101%
Cn1ncnc1[C@H]1c2n[nH]c(=O)c3cc(F)cc(c23)N[C@@H]1c1ccc(F)cc1 [Talazoparib] (max concentration tested 1000 nM) | 0 | 15.5 | 3.37 | 1.84 | 61.3% | 21.9% | 25.4%
Cc1nc(=O)c2cc(CN(C)c3ccc(C(=O)N[C@@H](CCC(=O)O)C(=O)O)s3)ccc2[nH]1 [Raltitrexed] (max concentration tested 1000 nM) | 0 | 6.69 | 3.16 | 15.1 | 29.9% | 14.7% | 71.5%
